For data set [1] the following is noted: from VanAken et al. 1986; cited from earlier work.
In data set [2] the target is A2A adenosine protein (Homo sapiens, UniProt P29274). The data set can be described thus: Test of solubilization of A2A membrane protein (Western Blot after 100 000 g centrifugation). Particulars: for solubility (solubilization) of A2A adenosine protein: 4° C, protein 20 mg/ml. The protocol:
Solubility Test of Protein of Interest: A2A Adenosine.
The protein content was set at 20 mg/ml (20 mM Tris-Cl pH 8.0, 150 mM NaCl, 10% Glycerol). The solubilization is effected at 4° C. The solubilized or non-solubilized protein fractions are separated by a 100 000 g centrifugation step for 1 hour at 4° C.
On the technique in general: In western blotting, separated proteins are transferred to a membrane and probed.

For data set [3], the target named is T1, Bacteriorhodopsin protein (bR) (Halobacterium salinarum, UniProt P02945).
T1 sequence (P02945 14-262): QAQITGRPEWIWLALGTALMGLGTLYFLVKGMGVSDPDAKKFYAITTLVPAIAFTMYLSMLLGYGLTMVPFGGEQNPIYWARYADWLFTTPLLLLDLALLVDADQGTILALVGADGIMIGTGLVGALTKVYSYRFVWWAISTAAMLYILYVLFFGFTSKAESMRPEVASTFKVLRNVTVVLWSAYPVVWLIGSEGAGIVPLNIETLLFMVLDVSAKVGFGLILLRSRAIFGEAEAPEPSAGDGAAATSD
The experiment in a line: Stability test of bacteriorhodopsin protein over time (absorbance at 550 nm). The settings on record: after 1 month and a half exposure at 37° C. in the dark.

Data set [4] can be described thus: CMC (H2O) of known detergents as stated in figure legend. The format is physicochemical. The settings on record: no source given.
Data set [5] in a line: Average particle size of aggregates by DLS (Dynamic Light Scattering). The format is physicochemical. How it is done: FIGS. 3a) and 3b) are two diagrams showing the average particle size obtained by DLS (Dynamic Light Scattering) analysis of CALX173GALO compound (FIG. 3a) and CALX173GLUK compound (FIG. 3b) at respectively 0.47 and 0.08 mM.
FIGS. 3a and 3b show the aggregation state of CALX173GALO and CALX173GLUK. As illustrated, all the systems observed form aggregates of the micellar type.

Like-named read-outs stand apart in the source and are kept apart here.

Sequence of A2A adenosine protein (P29274 whole entry): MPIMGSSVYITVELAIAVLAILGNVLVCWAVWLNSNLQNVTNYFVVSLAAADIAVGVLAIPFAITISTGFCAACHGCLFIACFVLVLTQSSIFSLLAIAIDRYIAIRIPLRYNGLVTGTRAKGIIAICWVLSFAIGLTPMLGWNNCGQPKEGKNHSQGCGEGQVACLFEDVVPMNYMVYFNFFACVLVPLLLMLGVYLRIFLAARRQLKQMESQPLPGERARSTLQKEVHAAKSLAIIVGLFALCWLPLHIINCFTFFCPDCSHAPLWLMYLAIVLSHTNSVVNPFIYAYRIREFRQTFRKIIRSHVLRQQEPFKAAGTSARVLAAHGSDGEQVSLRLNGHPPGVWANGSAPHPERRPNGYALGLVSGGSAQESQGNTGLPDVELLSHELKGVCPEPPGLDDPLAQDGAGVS

With `CCCCCCCCCCCCO[C@@H]1O[C@H](CO)[C@@H](O[C@H]2O[C@H](CO)[C@@H](O)[C@H](O)[C@H]2O)[C@H](O)[C@H]1O` [DDM, n-dodecyl-β-D-maltopyranoside, reference compound], the “CMC (H2O)” value in data set [1] is 0.17 mM. Besides, the “solubilization of A2A protein” value in data set [2] (20 CMC, reference compounds) is reported as “about 20%”. The “solubility (solubilization) of A2A adenosine protein” value (shortened to “solubility (solubilization)”) in data set [2] (detergent at 20 CMC) was “partial”.

As to `CCCCCCCCO[C@@H]1O[C@H](CO)[C@@H](O)[C@H](O)[C@H]1O` [OG, Octyl Glucoside, reference compound], in data set [3], the “stability of the bR protein” value was “nonexistent”.

Turning to “25-heptyloxy-26,27,28-tris(hydroxyl)calix-[4]-arene-5,11,17-tris(acetic acid) sodium salt [CALX173ACE]”, the “CMC (H2O)” value in data set [4] was determined as 2.5 mM.

For the compound `CCCCCCCOc1c2cccc1Cc1cc(CCO[C@@H]3O[C@H](CO)[C@H](O)[C@H](O)[C@H]3O)cc(c1OC)Cc1cc(CCO[C@@H]3O[C@H](CO)[C@H](O)[C@H](O)[C@H]3O)cc(c1OC)Cc1cc(CCO[C@@H]3O[C@H](CO)[C@H](O)[C@H](O)[C@H]3O)cc(c1OC)C2` [CALX173GALO, 5,11,17-Tris[2-(b-D-galactopyranosyloxy)ethyl]-25-heptoxy-26,27,28-trismethoxy-calix[4]arene], the “absorbance at 550 nm of bR protein” value in data set [3] is listed as “around 0.4”. Also, the “solubilization of A2A protein compared with reference compounds DDM and CALX173ACE” value in data set [2] (20 CMC) was “better”. In addition, the “solubility (solubilization)” value in data set [2] (detergent at 20 CMC) was “partial”. For the same compound, in data set [5] (at 0.47 mM), the “dparticules (average particle size by DLS)” value stood at 5.46 nm.

For the compound “5,11,17-Tris{2-[4-(b-D-glucopyranosyl)-1H-1,2,3-triazol-1-yl]-ethyl}-25-heptoxy-26,27,28-trismethoxy-calix[4]arene [CALX173GLUK]”, in data set [3], the “absorbance at 550 nm of bR protein” value amounted to 0.75. Besides, the “solubility (solubilization)” value in data set [2] (detergent at 8 CMC) is on record as “nonexistent”; in data set [2] (detergent at 20 CMC) it was “enhances the solubilization”. Further, in data set [5] (at 0.08 mM), the “dparticules (average particle size by DLS)” value is 5.53 nm.

With “Maltose-Neopentyl Glycol [MNG-12, reference compound]”, the “absorbance at 550 nm of bR protein” value in data set [3] was “around 0.4”.

These data come from US9695209B2, “Synthesis of amphiphilic calixarene glycoside detergents and use of same for extracting and stabilizing native functional membrane proteins” (CALIXAR, priority 2014, dated 2017).
